Results reported in US6365616B1, “Methimazole derivatives and tautomeric cyclic thiones to treat autoimmune diseases” (Sentron Medical, Inc., priority 1998, dated 2002).
Where two headings read alike, the source gives them in different places.

B1: γ-IFN: rat recombinant γ-interferon, 100 U/ml, used to increase MHC class I and class II expression in FRTL-5 cells (protein, UniProt P01581 23-156, looked up)
Interferon gamma: QGTLIESLESLKNYFNSSSMDAMEGKSLLLDIWRNWQKDGNTKILESQIISFYLRLFEVLKDNQAISNNISVIESHLITNFFSNSKAKKDAFMSIAKFEVNNPQIQHKAVNELIRVIHQLSPESSLRKRKRSRC

Key:
[1] = test system: HLA-DRα class II promoter; assay: Luciferase assay, FRTL-5 cells stably transfected with HLA-DRα class II promoter-luciferase chimeras; format: cell-based; conditions: 40 hours; for inhibition at 10 µM / inhibition at 100 µM / inhibition at 1000 µM: FRTL-5, read-out: % inhibition of IFN-increased p(−137)LUC class II promoter activity; for inhibition at 10 µM / inhibition at 100 µM / inhibition at 1000 µM / % inhibition of IFN-increased p(−137)LUC class II promoter activity / Luciferase activity +γ-IFN: 100 U/ml γ-interferon; for inhibition at 10 µM / inhibition at 100 µM / inhibition at 1000 µM / % inhibition of IFN-increased p(−137)LUC class II promoter activity: 6H medium
From the text: Similarly, the HLA DRα promoter constructs, p(−176)CAT and p(−137)CAT, inserted into the pCAT-Basic vector were released by restriction enzyme digestion, purified from agarose gel using QIAEX (QIAGEN, Chatsworth, Calif.), and used as templates for the construction by PCR of inserts with a 5′ flanking Mlul restriction site. The PCR products were purified by phenol-chloroform extraction, digested with MluI and XbaI, purified from agarose gels using QIAEX (QIAGEN, Chatsworth, Calif.) and ligated in the MluI-NheI site of the PGL-2 basic vector (PROMEGA, Madison, Wis.) using the DNA ligation kit from TAKARA biomedicals (TAKARA SHUZO Co.). JM1I9 bacterial competent cells (PROMEGA, Madison, Wis.) were transformed with the ligation reaction and plated in agar plates for 12 h at 37° C. The colonies were picked and screened with minipreps using QIAprep spin plasmid kit (QIAGEN, Chatsworth, Calif.) and restriction enzyme digestion. The plasmids were then purified by CsCI gradient centrifugation.
The PD1-PGL-2 basic constructs and the Class II-PGL-2 basic constructs were stably transfected in the FRTL-5 cells using a Lipofectamine (GIBCO, Life Technologies, Inc.) method. Near confluent cells in 6H medium were cotransfected with 20 μg of plasmid DNA and 2 μg of a pcDNA3neo or a pPUR selection vector (CLONTECH, Palo Alto, Calif.). After 24-48 hours, 400 μg/ml of G418 (GIBCO, Life Technologies, Inc.) or 10 μM of puromycin (SIGMA) were added to the medium. After 3 weeks the antibiotic-resistant colonies were cloned by limiting dilution and screened to determine their interferon sensitivity. At least 5 cell lines of each construct were isolated, each of whose activity was increased by adding 100 U/ml γ interferon to the medium of the cells. The following data (Tables 10-13) were obtained with one clone of each of the class I or class II-luciferase chimera, but were representative of at least three other clones of each.
Luciferase activity was measured using the Luciferase assay system (PROMEGA, Madison, Wis.). Briefly, treated or untreated cells from a 100 mm culture dish were washed with PBS, scraped and collected in microfuge tubes. The pellet was dissolved in 100 μl 1× reporter lysis buffer and incubated at room temperature for 15 minutes. Cells were frozen in dry ice plus ethanol and thawed in water at room temperature. After vortexing for 10 sec, tubes were centrifuged at 12,000×g for 5 min. Twenty μl of the supernatant were mixed with 100 μl of Luciferase assay reagent and immediately placed in a luminometer. Light was measured for a period of 10 sec after a 2 sec delay.
Treatment of cells, maintained either in the presence of TSH or its absence, with 100 U/ml interferon, increased class I and class II promoter activity (Table 10). In this experiment FRTL-5 cells were grown to 80% confluency in 6H medium with TSH then treated with 100 U/ml γ-interferon, 5 mM MMI or both together. Luciferase activity was measured after 40 hours as described. Several points are notable. First, interferon increases both class I and class II promoter activity in the stable transfectants. Second, MMI inhibits both interferon-increased class I and interferon-increased class II promoter activity.

MHC class I RNA = assay: Northern analysis of MHC class I RNA levels in FRTL-5 cells; format: cell-based, rat; conditions: for inhibition at 1000 µM / inhibition at 5000 µM / inhibition at 100 µM: Rattus norvegicus
[2] = 100 μM, 100 U/ml γ-interferon, 6H medium (TSH), 40 hours
[3] = 100 μM, basal, 5H medium, 40 hours
[4] = FRTL-5, 1 mM, 100 U/ml γ-interferon, 6H medium (TSH), 40 hours, read-out: % inhibition of class I RNA expression (γ-interferon-treated)
[5] = FRTL-5, 1 mM, basal, 5H medium, 40 hours, read-out: % inhibition of class I RNA expression (basal)
[6] = FRTL-5, 5 mM, 100 U/ml γ-interferon, 6H medium (TSH), 40 hours, read-out: % inhibition of class I RNA expression (γ-interferon-treated)
[7] = FRTL-5, 5 mM, basal, 5H medium, 40 hours, read-out: % inhibition of class I RNA expression (basal)
[8] = 1 mM, 100 U/ml γ-interferon, 6H medium (TSH), 40 hours
[9] = 1 mM, basal, 5H medium, 40 hours
[10] = 5 mM, 100 U/ml γ-interferon, 6H medium (TSH), 40 hours
[11] = FRTL-5, 100 μM, 100 U/ml γ-interferon, 6H medium (TSH), 40 hours, read-out: % inhibition of class I RNA expression (γ-interferon-treated)
[12] = FRTL-5, 100 μM, basal, 5H medium, 40 hours, read-out: % inhibition of class I RNA expression (basal)

Row | Molecule | inhibition at 10 µM ([1]; 10 μM) | inhibition at 100 µM ([1]; 100 μM) | inhibition at 1000 µM ([1]; 1 mM) | % inhibition of class I RNA expression (γ-interferon-treated) (MHC class I RNA; [2]) | % inhibition of class I RNA expression (basal) (MHC class I RNA; [3]) | inhibition at 1000 µM (MHC class I RNA; [4]) | inhibition at 1000 µM (MHC class I RNA; [5]) | inhibition at 5000 µM (MHC class I RNA; [6]) | other results
1 | Cn1ccnc1S [Compound 1, 1-Methylimidazole-2-thiol] | 0% | 0% | 37 ± 10% | None | None | 29 ± 7% | 25 ± 10% | 52 ± 15% | Luciferase activity + 5 mM MMI ([1]; −137 HLA-DRα-LUC): 103 ± 6 % Control; Luciferase activity + 5 mM MMI ([1]; −167 HLA-DRα-LUC): 99 ± 5 % Control; inhibition at 5000 µM (MHC class I RNA; [7]): 42 ± 8%
2 | Cc1ncc([N+](=O)[O-])n1CCO [Compound 2, 2-Methyl-5-nitro-1-imidazole ethanol] | 0% | 7 ± 6% | 65 ± 9% | None | None | 42 ± 5% | 49 ± 6% | 68 ± 13% | inhibition at 5000 µM (MHC class I RNA; [7]): 63 ± 14%
3 | Sc1ncc[nH]1 [Compound 3, 2-Mercaptoimidazole] | – | – | – | – | – | – | – | – | % inhibition of class I RNA expression (γ-interferon-treated) (MHC class I RNA; [8]): None; % inhibition of class I RNA expression (basal) (MHC class I RNA; [9]): None; % inhibition of class I RNA expression (γ-interferon-treated) (MHC class I RNA; [10]): None; % inhibition of class I RNA expression (basal) (MHC class I RNA; 5 mM, basal, 5H medium, 40 hours): None
4 | Sc1nc2ccccc2[nH]1 [Compound 4, 2-Mercaptobenzimidazole] | – | – | – | None | None | – | – | – | inhibition at 1000 µM (MHC class I RNA; FRTL-5, 40 h, read-out: % inhibition of class I RNA expression (basal)): 34 ± 13%; inhibition at 1000 µM (MHC class I RNA; FRTL-5, 40 h, read-out: % inhibition of class I RNA expression (γ-interferon-treated)): 37 ± 10%
5 | O=[N+]([O-])c1ccc2[nH]c(S)nc2c1 [Compound 5, 2-Mercapto-5-nitrobenzimidazole] | – | – | – | None | None | 19 ± 7% | 32 ± 11% | – | –
6 | Cc1ccc2[nH]c(S)nc2c1 [Compound 6, 2-Mercapto-5-methylbenzimidazole] | – | – | – | None | None | 22 ± 16% | 23 ± 15% | 23 ± 11% | –
7 | CSc1nccn1C [Compound 7, S-Methylmethimazole] | 0% | 30 ± 7% | 68 ± 10% | – | – | 40 ± 15% | 46 ± 9% | 69 ± 6% | inhibition at 100 µM (MHC class I RNA; [11]): 14 ± 11%; inhibition at 100 µM (MHC class I RNA; [12]): 10 ± 8%
8 | Cn1ccn(C)c1=S [Compound 8, N-Methylmethimazole] | – | – | – | 9 ± 7% | 14 ± 12% | – | – | – | % inhibition of IFN-increased p(−137)LUC class II promoter activity ([1]; 10 μM): 0%; % inhibition of IFN-increased p(−137)LUC class II promoter activity ([1]; 100 μM): 43 ± 5%; % inhibition of IFN-increased p(−137)LUC class II promoter activity ([1]; 1 mM): 84 ± 9%; % inhibition of class I RNA expression (γ-interferon-treated) (MHC class I RNA; [8]): 49 ± 13%; % inhibition of class I RNA expression (basal) (MHC class I RNA; [9]): 60 ± 6%; % inhibition of class I RNA expression (γ-interferon-treated) (MHC class I RNA; [10]): 73 ± 12%
9 | Cc1cnc(S)n1C [Compound 9, 5-Methylmethimazole] | – | – | – | None | None | 9 ± 5% | 15 ± 14% | 24 ± 6% | inhibition at 5000 µM (MHC class I RNA; [7]): 30 ± 5%
10 | Cn1c(-c2ccccc2)cnc1S [Compound 10, 5-Phenylmethimazole] | 43 ± 20% | 80 ± 7% | 92 ± 10% | – | – | 60 ± 12% | 85 ± 16% | – | inhibition at 100 µM (MHC class I RNA; [11]): 42 ± 14%; inhibition at 100 µM (MHC class I RNA; [12]): 60 ± 8%
11 | B1 | – | – | – | – | – | – | – | – | Luciferase activity +γ-IFN ([1]; −137 HLA-DRα-LUC): 695 ± 42 % Control; Luciferase activity +γ-IFN ([1]; −167 HLA-DRα-LUC): 790 ± 45 % Control
